For ten compounds, pest or weed control results are on record in patent US4243408A, “Herbicidal N-triazolylmethyl-substituted alpha-haloacetanilide” (Chevron Research Company, priority 1978, dated 1981).

Assay type in all cases: in vivo
Test [1] has as its system Pigweed (Amaranthus retroflexus). In words: Post-Emergent Test, herbicidal effectiveness. The following applies: post-emergence, 504 h, 33 micrograms per cm^2, 3 weeks, 0-to-100 scale, read-out: Herbicidal Effectiveness, % Control Post, P.
For test [2], the system named is Watergrass (Echinochloa). In words: Post-Emergent Test, herbicidal effectiveness. The following applies: post-emergence, 504 h, 33 micrograms per cm^2, 3 weeks, 0-to-100 scale, read-out: Herbicidal Effectiveness, % Control Post, W.
For test [3], the system named is Crabgrass (Digitaria sanguinalis). The experiment in a line: Post-Emergent Test, herbicidal effectiveness. To be noted: post-emergence, 504 h, 33 micrograms per cm^2, 3 weeks, 0-to-100 scale, read-out: Herbicidal Effectiveness, % Control Post, C.
Test [4] relates to Wild Oats (Avena fatua). In words: Post-Emergent Test, herbicidal effectiveness. The following applies: post-emergence, 504 h, 33 micrograms per cm^2, 3 weeks, 0-to-100 scale, read-out: Herbicidal Effectiveness, % Control Post, O.
Test [5] concerns Mustard (Brassica arvensis). In words: Post-Emergent Test, herbicidal effectiveness. To be noted: post-emergence, 504 h, 33 micrograms per cm^2, 3 weeks, 0-to-100 scale.
Test [6] concerns Lambsquarter (Chenopodium album). The experiment in a line: Post-Emergent Test, herbicidal effectiveness. The following applies: post-emergence, 504 h, 33 micrograms per cm^2, 3 weeks, 0-to-100 scale, read-out: Herbicidal Effectiveness, % Control Post, L.
Test [7] relates to Pigweed (Amaranthus retroflexus). The experiment in a line: Pre-Emergent Test, herbicidal effectiveness. The following applies: pre-emergence, 504 h, 33 micrograms per cm^2, 3 weeks, 0-to-100 scale, read-out: Herbicidal Effectiveness, % Control Pre, P. As to the method:
(§1) An acetone solution of the test compound was prepared by mixing 750 mg of the compound, 220 mg of a nonionic surfactant and 25 ml of acetone. This solution was added to approximately 125 ml of water containing 156 mg of surfactant.
(§2) Seeds of the test vegetation were planted in a pot of soil and the test solution was sprayed uniformly onto the soil surface at a dose of 33 micrograms/cm^2. The pot was watered and placed in a greenhouse. […] At the end of this period, the herbicidal effectiveness of the compound was rated based on the physiological observations. A 0-to-100 scale was used, 0 representing no phytotoxicity, 100 representing complete kill.

Test [8] has as its system Watergrass (Echinochloa). In words: Pre-Emergent Test, herbicidal effectiveness. To be noted: pre-emergence, 504 h, 33 micrograms per cm^2, 3 weeks, 0-to-100 scale, read-out: Herbicidal Effectiveness, % Control Pre, W. As to the method:
as §1, §2

For test [9], the system named is Crabgrass (Digitaria sanguinalis). In words: Pre-Emergent Test, herbicidal effectiveness. The following applies: pre-emergence, 504 h, 33 micrograms per cm^2, 3 weeks, 0-to-100 scale, read-out: Herbicidal Effectiveness, % Control Pre, C. As to the method: as §1, §2
Test [10] deals with Wild Oats (Avena fatua). In words: Pre-Emergent Test, herbicidal effectiveness. To be noted: pre-emergence, 504 h, 33 micrograms per cm^2, 3 weeks, 0-to-100 scale, read-out: Herbicidal Effectiveness, % Control Pre, O. As to the method:
as §1, §2

For test [11], the system named is Mustard (Brassica arvensis). In words: Pre-Emergent Test, herbicidal effectiveness. To be noted: pre-emergence, 504 h, 33 micrograms per cm^2, 3 weeks, 0-to-100 scale. As to the method: as §1, §2
For test [12], the system named is Lambsquarter (Chenopodium album). In words: Pre-Emergent Test, herbicidal effectiveness. To be noted: pre-emergence, 504 h, 33 micrograms per cm^2, 3 weeks, 0-to-100 scale, read-out: Herbicidal Effectiveness, % Control Pre, L. As to the method:
as §1, §2

Take `CCc1cccc(C)c1N(Cc1nnc[nH]1)C(=O)CCl` [Compound 17B]: the pest or weed control at 5000 µg/mL, 33 µg/cm2 was found to be 65% in test [1]; 75% in the test with Watergrass (Echinochloa) [2]; 75% in test [3]; 60% with Wild Oats (Avena fatua) [4]; 75% in [5]; 65% in test [6]. The pest or weed control at 33 µg/cm2 in [7] came to 95%; with Watergrass (Echinochloa) [8], 100%; in test [9], 100%; with Wild Oats (Avena fatua) [10] it was 100%; in test [11], 90%; in test [12], 100%.
As to `CCc1nnc(CN(C(=O)CCl)c2c(C)cccc2CC)[nH]1` [Compound 15B], the pest or weed control at 5000 µg/mL, 33 µg/cm2 turned out to be 30% in test [1]; 80% in the test on Watergrass (Echinochloa) [2]; 75% in test [3]; 55% in the test with Wild Oats (Avena fatua) [4]; 35% in test [5]; 35% in test [6]. Further, the pest or weed control at 33 µg/cm2 (in [7]; in the test on Watergrass (Echinochloa) [8]; in test [9]; in the test with Wild Oats (Avena fatua) [10]; in test [11]; in test [12]) was 100% in each case.
With `Cc1nnc(C(C)Nc2c(C)cccc2C)[nH]1` (stereo not drawn) [Compound 11A], the pest or weed control at 5000 µg/mL, 33 µg/cm2 (in test [1]; with Watergrass (Echinochloa) [2]; in [3]; with Wild Oats (Avena fatua) [4]; in [5]; in test [6]) was 0% throughout. For the same compound, the pest or weed control at 33 µg/cm2 (in test [7]; with Watergrass (Echinochloa) [8]; in test [9]; with Wild Oats (Avena fatua) [10]; in [11]; in test [12]) was 0% each time.
For `CCc1cccc(C)c1NCc1nnc(SC)n1C` [Compound 21A], the pest or weed control at 5000 µg/mL, 33 µg/cm2 (in test [1]; in the test on Watergrass (Echinochloa) [2]; in test [3]; in the test on Wild Oats (Avena fatua) [4]; in [5]; in test [6]) was 0% throughout. For the same compound, the pest or weed control at 33 µg/cm2 (in test [7]; in the test with Watergrass (Echinochloa) [8]; in test [9]; in the test with Wild Oats (Avena fatua) [10]; in [11]; in test [12]) was 0% each time.
As to `Cc1nnc(C(C)N(C(=O)CCl)c2c(C)cccc2C)[nH]1` (stereo not drawn) [Compound 11B], the pest or weed control at 5000 µg/mL, 33 µg/cm2 was 20% in test [1]; 73% in the test on Watergrass (Echinochloa) [2]; 55% in test [3]; 10% with Wild Oats (Avena fatua) [4]; 20% in [5]; 25% in [6]. The pest or weed control at 33 µg/cm2 was 90% in [7]; 100% in the test on Watergrass (Echinochloa) [8]; 100% in test [9]; 97% with Wild Oats (Avena fatua) [10]; 80% in [11]; 100% in test [12].
As to `Cc1cccc(C)c1N(CCc1nnc[nH]1)C(=O)CCl` [Compound 13], the pest or weed control at 5000 µg/mL, 33 µg/cm2 in [1] is 0%; in the test with Watergrass (Echinochloa) [2] it was 63%; in [3] it was 60%; in the test with Wild Oats (Avena fatua) [4], 20%; in [5], 0%; in test [6] it was 0%. For the same compound, the pest or weed control at 33 µg/cm2 in test [7] worked out at 40%; with Watergrass (Echinochloa) [8], 97%; in [9], 85%; with Wild Oats (Avena fatua) [10] it was 25%; in [11], 20%; in test [12], 75%.
On to `Cc1nnc(CN(C(=O)CCl)c2ccc(Cl)c(Cl)c2)[nH]1` [Compound 27B], for which the pest or weed control at 5000 µg/mL, 33 µg/cm2 (in test [1]; in the test on Watergrass (Echinochloa) [2]; in test [3]; in the test with Wild Oats (Avena fatua) [4]; in test [5]; in test [6]) was 0% in each case. For the same compound, the pest or weed control at 33 µg/cm2 (in test [7]; in the test with Watergrass (Echinochloa) [8]; in [9]; in the test on Wild Oats (Avena fatua) [10]; in test [11]; in [12]) was 0% throughout.
Take `Cc1nc(CNc2c(C)cccc2C)n[nH]1` [Compound 2A, 3-(2,6-dimethylphenylaminomethyl)-5-methyl-1,2,4-triazole]: the pest or weed control at 5000 µg/mL, 33 µg/cm2 (in test [1]; in the test with Watergrass (Echinochloa) [2]; in [3]; in the test with Wild Oats (Avena fatua) [4]; in test [5]; in test [6]) was 0% throughout. Besides, the pest or weed control at 33 µg/cm2 (in test [7]; in the test with Watergrass (Echinochloa) [8]; in test [9]; with Wild Oats (Avena fatua) [10]; in test [11]; in [12]) was 0% in each case.
In the case of `CCc1cccc(C)c1N(Cc1nnc(C)o1)C(=O)CCl` [Compound 4], the pest or weed control at 5000 µg/mL, 33 µg/cm2 worked out at 0% in [1]; 60% in the test with Watergrass (Echinochloa) [2]; 20% in test [3]; 50% in the test on Wild Oats (Avena fatua) [4]; 0% in test [5]; 0% in test [6]. Moreover, the pest or weed control at 33 µg/cm2 in test [7] came to 65%; with Watergrass (Echinochloa) [8], 100%; in [9], 100%; with Wild Oats (Avena fatua) [10], 93%; in test [11], 10%; in test [12], 10%.
In the case of `Cc1nnc(CNc2c(C)cccc2Cl)[nH]1` [Compound 22A], the pest or weed control at 5000 µg/mL, 33 µg/cm2 (in test [1]; with Watergrass (Echinochloa) [2]; in test [3]; in the test with Wild Oats (Avena fatua) [4]; in test [5]; in test [6]) was 0% in each case. In addition, the pest or weed control at 33 µg/cm2 (in [7]; in the test with Watergrass (Echinochloa) [8]; in [9]; in the test on Wild Oats (Avena fatua) [10]; in test [11]; in test [12]) was 0% throughout.
